Data from PubChem BioAssay (NCI).
Where “and” joins values, the source holds several entries; their conditions need not be identical. Equal entries are not always repeated.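 Cells were grown in 96-well plates and exposed to each compound for 48 hours at five concentrations; endpoints were interpolated linearly between bracketing concentrations, or set to the highest concentration if not reached. The concentration for 50% growth inhibition is given as GI50. TGI: concentration producing complete growth inhibition.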

Key:
Test in all cases: DTP human tumour cell line panel, 48 h
A498 renal = system: A498 renal
CCRF-CEM leukemia = system: CCRF-CEM leukemia
HOP-62 NSCLC = system: HOP-62 NSCLC
K-562 leukemia = system: K-562 leukemia
NCI-H226 lung = system: NCI-H226 lung
SF-539 CNS = system: SF-539 CNS
SK-MEL-2 melanoma = system: SK-MEL-2 melanoma
SK-OV-3 ovarian = system: SK-OV-3 ovarian
SNB-75 CNS = system: SNB-75 CNS
TK-10 renal = system: TK-10 renal

Structure (SMILES)	GI50 (A498 renal)	TGI (A498 renal)	GI50 (CCRF-CEM leukemia)	TGI (CCRF-CEM leukemia) [µM]	GI50 (HOP-62 NSCLC)	TGI (HOP-62 NSCLC)	GI50 (K-562 leukemia)	TGI (K-562 leukemia)	GI50 (NCI-H226 lung)	TGI (NCI-H226 lung)	GI50 (SF-539 CNS)	TGI (SF-539 CNS)	GI50 (SK-MEL-2 melanoma)	TGI (SK-MEL-2 melanoma)	GI50 (SK-OV-3 ovarian)	TGI (SK-OV-3 ovarian)	GI50 (SNB-75 CNS)	TGI (SNB-75 CNS)	GI50 (TK-10 renal)	TGI (TK-10 renal)
CC(=O)[O-].CC(=O)[O-].[NH2-].[Pt+2].c1ccc2cnccc2c1	> 100 µM	> 100 µM	14.1 µM	> 100	74.5 µM	> 100 µM	15.6 µM	51.8 µM	47.4 µM	> 100 µM	4.83 µM	43.8 µM	36 µM	> 100 µM	> 100 µM	> 100 µM	> 100 µM	> 100 µM	15.5 µM	90.7 µM
CC1=C(O)C(=O)C2C(=O)C1C(C)C2c1ccc(Cl)cc1 (stereo not given)	–	> 100 µM	–	> 100	–	> 100 µM	–	> 100 µM	–	> 100 µM	–	> 100 µM	–	> 100 µM	–	> 100 µM	–	> 100 µM	–	> 100 µM
C[C@@H]1COCCN1c1cc(C2(S(C)(=N)=O)CC2)nc(-c2ccnc3[nH]ccc23)n1 (stereo not given in full)	0.146 µM	1.69 µM	1.55 µM	> 100	2.94 µM	36.1 µM	3.22 µM	> 100 µM	3.94 µM	76.8 µM	0.86 µM	3.5 µM	4.59 µM	18.9 µM	5.27 µM	56.4 µM	1.64 µM	12.8 µM	8.51 µM	51 µM
OCc1ccc(-c2nn(Cc3ccccc3)c3ccccc23)o1	0.092 µM and 0.0445 µM	0.25 µM and 0.144 µM	24.3 µM and 25.5 µM	> 95.9	15.8 µM and 2.86 µM	53.8 µM and 30.2 µM	10.1 µM and 7.41 µM	63.2 µM and > 42.3 µM	0.156 µM and 0.114 µM	0.346 µM and 0.371 µM	16.2 µM and 18.6 µM	32.2 µM and 35.5 µM	16.6 µM and 30.7 µM	32.6 µM and > 100 µM	20.7 µM and 17.6 µM	57.1 µM and 43.9 µM	11.7 µM and > 100 µM	47.2 µM and > 100 µM	0.253 µM and 0.489 µM	1.02 µM and 3.61 µM
CC/C=C\C/C=C\C/C=C\CCCCCCCC(=O)OCC	–	> 100 µM	–	> 100	–	> 100 µM	–	> 100 µM	–	> 100 µM	–	> 100 µM	–	> 100 µM	–	> 100 µM	–	> 100 µM	–	> 100 µM
Cc1nc2sc(C(=O)Nc3ccccc3)c(N)c2cc1C(=O)/C=C/c1ccccc1	2.21 µM	6.08 µM	2.22 µM	> 100	2.15 µM	5.13 µM	2.41 µM	17 µM	2.04 µM	4.6 µM	1.88 µM	3.56 µM	3.37 µM	14.6 µM	4.03 µM	23.3 µM	2.18 µM	6.12 µM	2.3 µM	6.39 µM
CN(C)CCCN1CCc2c([nH]c3ccccc23)C1c1cccnc1 (stereo not given)	–	> 100 µM	–	> 100	–	> 100 µM	–	> 100 µM	–	> 100 µM	–	> 100 µM	–	> 100 µM	–	> 100 µM	–	> 100 µM	–	> 100 µM
CCCCN(Cc1ccc(F)cc1)c1ccc(CO)c(Cl)c1	0.0543 µM	0.208 µM	15.8 µM	38.1	11.1 µM	23.4 µM	6.76 µM	29.6 µM	0.146 µM	0.318 µM	17.7 µM	32.6 µM	14.5 µM	29.9 µM	15 µM	28.2 µM	13.1 µM	26.1 µM	0.319 µM	1.89 µM
CC1C(=O)C(C)C(c2ccccc2)N(N=O)C1c1ccccc1 (stereo not given)	–	696 µM	–	> 1000	111 µM	> 78.3 µM and 360 µM	–	> 1000 µM	260 µM	572 µM	> 50.3 µM	> 79 µM and 310 µM	–	623 µM	103 µM	> 83.8 µM and 472 µM	27.2 µM	64.7 µM and 80.6 µM	–	640 µM
N#C/C(=C\c1cccc(O)c1)C(N)=O	–	> 100 µM	–	> 100	–	> 100 µM	–	> 100 µM	–	> 100 µM	–	> 100 µM	–	> 100 µM	–	> 100 µM	–	95.4 µM	–	> 100 µM
O=C1C2=C(c3ccccc31)C(c1ccccc1)NC(=S)N2 (stereo not given)	–	> 100 µM	–	> 100	–	> 100 µM	–	67.4 µM	–	> 100 µM	–	46.3 µM	–	> 100 µM	–	> 100 µM	–	80 µM	–	> 100 µM
OCCCCCCOc1ccc(-c2cc(-c3ccccn3)nc(-c3ccccn3)c2)cc1	–	5.77 µM	–	1.08	–	1.66 µM	–	3.78 µM	–	1.06 µM	–	1.02 µM	–	1.13 µM	–	1.59 µM	–	3.11 µM	–	6.66 µM
C=C1CC[C@@H]2[C@](C)(COC(C)=O)[C@H](OC(C)=O)CC[C@@]2(C)[C@@H]1CC(Nc1ccc(S(=O)(=O)Nc2nccc(C)n2)cc1)C1=CCOC1=O (stereo not given in full)	14.8 µM	28.4 µM	0.073 µM	3.09	10.3 µM	22.5 µM	2.97 µM	21.7 µM	2.33 µM	5.91 µM	2.07 µM	4.73 µM	6.01 µM	20 µM	12.7 µM	25.3 µM	2.69 µM	14.9 µM	4.94 µM	15.8 µM
Cc1cc(=O)oc2cc3c(cc12)Oc1ccccc1O3	–	> 100 µM	–	> 10	–	> 100 µM	–	> 10 µM	–	> 100 µM	–	56.7 µM	–	> 100 µM	–	> 100 µM	–	59.9 µM	–	> 100 µM
COc1cccc(C2c3cc4c(cc3OC(O)(CO)C2C(=O)O)OCO4)c1 (stereo not given) (tested in a mixture with another compound)	–	> 100 µM	–	> 100	–	> 100 µM	–	> 100 µM	–	> 100 µM	–	> 100 µM	–	> 100 µM	–	> 100 µM	–	54 µM	–	> 100 µM
COc1cc([C@@H]2c3cc4c(cc3[C@@H](NC(=O)c3ccccc3)C3COC(=O)[C@@H]32)OCO4)cc(OC)c1O (stereo not given in full)	–	27 µM	–	> 100	–	13 µM	–	33.8 µM	–	8.28 µM	–	24.8 µM	–	57.3 µM	–	> 100 µM	–	38 µM	–	92.5 µM
